# According to patent US20200354348A1, “SEMISYNTHETIC AURONES AND METHODS OF USE THEREOF” (University of Kentucky Research Foundation, priority 2018, published 2020):
# “Also recorded” adds a separate entry of the source.
# Columns and labels:
# PC-3 cells = assay: Proliferation inhibition assay, PC-3; format: cell-based; conditions: Homo sapiens, PC-3, Table 2
# Experimental: Cell Culture. LS174T (colon cancer cells), PC-3 (prostate cancer cells), MCF-7 (beast) and A549 (lung) were cultured in the medium recommended by American Type Culture Collection at 37° C. with 5% CO2 atmosphere in a water jacketed incubator. Ovcar-8 and NCI/ADR-RES are gifts from Dr. Markos Leggas. Alpha-tubulin antibodies, TRITC-conjugated anti-rabbit antibody.
# Proliferation inhibition assay. Cancer cells were seeded into 24-well plates at a density of 20,000 cells per well in 1 mL of culture medium and cultured overnight at 37° C. Compounds and the vehicle control DMSO were added to the cells. After 6 days, medium was removed and 100 μL of trypsin was added. Then the cells resuspended in pbs were counted by Vi-CELL XR 2.03 (Beckman Coulter, Inc. USA). The ratio R of the number of viable cells in the compound treatment group to the number of viable cells in DMSO treatment group was taken as relative growth, and the percentage growth inhibition was calculated as: (1−R)*100. For initial testing, compounds were added to the cells at a final concentration 10 μM. Active compounds at 10 μM would be tested at lower concentrations.
# EKVX = assay: NCI60 screening; format: cell-based; conditions: Homo sapiens, Non-Small Cell Lung Cancer
# NCI-H226 = assay: NCI60 screening; format: cell-based; conditions: Homo sapiens, Non-Small Cell Lung Cancer
# NCI-H322M = assay: NCI60 screening; format: cell-based; conditions: Homo sapiens, Non-Small Cell Lung Cancer
# NCI-H522 = assay: NCI60 screening; format: cell-based; conditions: Homo sapiens, Non-Small Cell Lung Cancer
# HCC-2998 = assay: NCI60 screening; format: cell-based; conditions: Homo sapiens, Colon Cancer
# MALME-3M = assay: NCI60 screening; format: cell-based; conditions: Homo sapiens, Melanoma
# UACC-257 = assay: NCI60 screening; format: cell-based; conditions: Homo sapiens, Melanoma
# OVCAR-4 = assay: NCI60 screening; format: cell-based; conditions: Homo sapiens, Ovarian Cancer
# NCI/ADR-RES = assay: NCI60 screening; format: cell-based
# A498 = assay: NCI60 screening; format: cell-based; conditions: Homo sapiens, Renal Cancer
# Jurkat = assay: IC50 in leukemia cell lines; format: cell-based; conditions: Homo sapiens, T-ALL
# Loucy = assay: IC50 in leukemia cell lines; format: cell-based; conditions: T-ALL
# MOLT-4 = assay: IC50 in leukemia cell lines; format: cell-based; conditions: Homo sapiens; Molt-4, T-ALL
# Molt-16 = assay: IC50 in leukemia cell lines; format: cell-based; conditions: Homo sapiens; Molt-16, T-ALL
# RPMI58402 = assay: IC50 in leukemia cell lines; format: cell-based; conditions: RPMI58402, T-ALL
# Nalm-16 = assay: IC50 in leukemia cell lines; format: cell-based; conditions: NALM16; Nalm-16, B-ALL
# REH = assay: IC50 in leukemia cell lines; format: cell-based; conditions: Homo sapiens, B-ALL
# NCI-BL2009 = assay: IC50 in leukemia cell lines; format: cell-based; conditions: NCI-BL2009, Normal B-Lymphoblast
# Myc-induced T-ALL = assay: Anti-leukemia activity in the zebrafish model; format: in vivo
# Experimental: Rag2:Myc-GFP zebrafish at 21 days of age were treated with DMSO, Aurone 4a, or 4r in 1.5 mL fish system water in 12-well plates. Zebrafish were treated with compound for 2 days, removed from drug for 1 day, and treated for two more days in fresh compound. Animals were imaged at the start and end of treatment using a fluorescence-equipped dissecting microscope at 350 ms exposure. The GFP image was overlaid onto the bright-field image of each animal in Photoshop, and the percent change in leukemia burden was calculated by normalizing the GFP+ area to the total area of the animal in ImageJ.
# tubulin = assay: In vitro tubulin polymerization assay; format: biochemical; conditions: 5 μM
# Experimental: In vitro tubulin polymerization assay. The in vitro tubulin polymerization assay was performed by referring tubulin manufacturer's protocol. Briefly, tubulin powder (Cytoskeleton Inc. USA) was dissolved in cold buffer [100 mM PIPES (pH 6.9), 2 mM MgCl2, 1 mM GTP, and 5% glycerol] on ice. Then aliquots (80 μL, 3.75 μg/μL) of the obtained tubulin solution were divided into the wells of a 96-well half-area plate (Corning, USA). After adding DMSO or testing compounds, the plate was mounted to a Spectra MR™ microplate spectrophotometer equipped with a thermal controller allowing to adjust the temperature to 37° C. (DYNEX Technologies Limited, USA). Readings at 350 nm were recorded every 30 s for 1 hour.
# HEK193T cells = assay: In vivo microtubule assembly assay in cells; format: cell-based
# Experimental: In vivo microtubule assembly assay. The amount of insoluble polymerized microtubules and soluble tubulin dimers in cells after exposure to compounds were detected following the method by Blagosklommy et al. (Cancer research 55, 4623-4626 (1995). Cells were seeded in 6-well plate at 50% confluency and cultured overnight. DMSO or compounds were added and the cells were incubated for additional 6 hours. The medium was removed and cells were washed with PBS three times followed by addition of lysis buffer [20 mM Tris-HCl (pH 6.8), 1 mM MgCl2, 2 mM EGTA, 20 μg/mL aprotinin, 20 μg/mL leupeptin, 1 mM PMSF, 1 mM orthovanadate, and 0.5% NP40]. The lysates were centrifuged at 12000 g for 10 min to obtain supernatants and pellets, where were mixed with loading buffer and boiled. Then standard western blot analysis against β-tubulin was performed as described by our previous work. (ACS Chem Biol 8, 796-803, doi:10.1021/cb3005353 (2013)).
# [1] = system: PC-3, LS174T and HEK293T cells; assay: Cell morphology; format: cell-based; conditions: 300 nM, 6 h
smiles,measurement,setting,value
"CCn1cc(/C=C2\Oc3cc(OCC#N)ccc3C2=O)c2cc(OC)ccc21 [Aurone 4a, (Z)-2-((2-((1-Ethyl-5-methoxy-1H-indol-3-yl)methylene)-3-oxo-2,3-dihydrobenzofuran-6-yl)oxy)acetonitrile]",inhibition at 0.1 µM,PC-3 cells; 100 nM,58 ± 11%
same,inhibition at 0.3 µM,PC-3 cells; 300 nM,93 ± 2.8%
same,inhibition at 1 µM,PC-3 cells; 1 μM,95 ± 2.5%
same,GI50,EKVX,2730 nM
same,GI50,NCI-H226,57400 nM
same,GI50,NCI-H322M,1430 nM
same,GI50,NCI-H522,3130 nM
same,GI50,HCC-2998,3440 nM
same,GI50,MALME-3M,> 100000 nM
same,GI50,UACC-257,67100 nM
same,GI50,OVCAR-4,19000 nM
same,cytotoxicity against multidrug-resistant cell line,NCI/ADR-RES; NCI/ADR-RES,potent cytotoxicity
same,substrate of P-glycoprotein,NCI/ADR-RES; inferred from NCI/ADR-RES cells expressing P-glycoprotein,not likely a substrate of P-glycoprotein
same,GI50,A498,10300 nM
same,IC50,Jurkat,273 nM
same,IC50,Loucy,334 nM
same,IC50,MOLT-4,241 nM
same,IC50,Molt-16,234 nM
same,IC50,RPMI58402,301 nM
same,IC50,Nalm-16,272 nM
same,IC50,REH,287 nM
same,IC50,NCI-BL2009,1250 nM
same,gross toxicity on zebrafish,Myc-induced T-ALL,no gross toxicity was observed
same,inhibition of Myc-induced T-ALL,Myc-induced T-ALL; 5 days,blocked the progress of T-ALL; also recorded: significant inhibition of Myc-induced T-ALL
same,decrease in leukemia burden,"Myc-induced T-ALL; percent change over treatment, p=0.0011 vs DMSO",45.58%
same,tubulin polymerization in vitro,tubulin,inhibits tubulin polymerization
same,tubulin polymerization in cells,HEK193T cells,decreased tubulin polymerization
same,cell morphology,[1],Cell morphologies were changed
